Laboratory results taken from US11806346B2, “HTT modulators for treating Huntington's disease” (CHDI Foundation, Inc., priority 2020, dated 2023).

These compounds were tested on tHTT (total HTT protein) (assay: Time-resolved FRET assay, total huntingtin (tHTT) detection in cell lysates). Conditions: GEN020 hESCs (mutant 48 Q repeat allele), compounds added for 48 hours, TR-FRET on lysate; read-out: tHTT EC50.
Type: cell-based, human
Protocol: Single-step detection of mutant huntingtin in animal and human tissues: a bioassay for Huntington's disease. Anal. […] Derivation of Huntington's disease-affected human embryonic stem cell lines, Stem Cells Dev. […] Cells were plated into 384-well collagen coated plates (10,000 cells per well) and left to adhere for 24 hours, test compounds were then added for 48 hours (37° C., 5% CO2), cells were then lysed and the lysate was transferred to a black 384-well assay plate. […] The donor/acceptor ratio between these signals indicated the relative quantities of mHTT and tHTT.
`COc1cc2nn(C)cc2cc1NC(=O)c1cnc(N2CC(CN3CC[C@@H](F)C3)C2)cn1` [Example 304, (R)-5-(3-((3-fluoropyrrolidin-1-yl)methyl)azetidin-1-yl)-N-(6-methoxy-2-methyl-2H-indazol-5-yl)pyrazine-2-carboxamide] was tested, and the EC50 was 100 to 500 nM.
Work on `Cc1cn2cc(NC(=O)c3cnc(N4CCC(CN(C)C5CC5)C4)cn3)nc(C)c2n1` (single isomer, unassigned) [Example 240] yielded an EC50 of 100 to 500 nM.
Compound `Cc1cn2cc(NC(=O)c3cnc(N4C[C@@H]5[C@H](C4)[C@@H]4CC[C@H]5N4)cn3)cc(F)c2n1` [Example 45] has an EC50 of 1000 to 10000 nM.
In the case of `CNC1CN(c2ncc(C(=O)Nc3cc(F)c4nc(C)cn4c3)cn2)CC1F` (stereo not shown) [Example 139], the EC50 is reported as 1000 to 10000 nM.
In the case of `Cc1cn2cc(NC(=O)c3cnc(N4CC5(CCCN(C6CC6)C5)C4)cn3)cc(F)c2n1` [Example 242, 5-(6-cyclopropyl-2,6-diazaspiro[3.5]nonan-2-yl)-N-(8-fluoro-2-methylimidazo[1,2-a]pyridin-6-yl)pyrazine-2-carboxamide], the EC50 is reported as 500 to 1000 nM.
For `CCNC1CN(c2cnc(C(=O)Nc3cc(F)c4nc(C)cn4c3)cn2)CC1F` (stereo not shown) [Example 120], the EC50 was 100 to 500 nM.
Work on `CN[C@@H]1CCN(c2cnc(C(=O)Nc3cn4cc(C)nc4cn3)cn2)C1` [Example 109] yielded an EC50 of 1000 to 10000 nM.
Work on `Cc1cn2cc(NC(=O)c3cnc(N4CCC5(CC4)CN(C)C5)nc3)cc(F)c2n1` [Example 135] yielded an EC50 of 1000 to 10000 nM.
`COc1nc(NC(=O)c2cnc(N3C[C@H](C)N[C@@H](C)C3)cn2)cn2cc(C)nc12` [Example 124] gave an EC50 of 1000 to 10000 nM.
`COc1nc(NC(=O)c2cnc(N3CC(F)(CNC4CC4)C3)cn2)cn2cc(C)nc12` [Example 249, 5-(3-((cyclopropylamino)methyl)-3-fluoroazetidin-1-yl)-N-(8-methoxy-2-methylimidazo[1,2-a]pyrazin-6-yl)pyrazine-2-carboxamide] was tested, and the EC50 was 100 to 500 nM.
In the case of `Cc1cn2cc(NC(=O)c3cnc(N4CCC(C5CCCN5)C4)cn3)cc(F)c2n1` (single isomer, unassigned) [Example 160], the EC50 is reported as 500 to 1000 nM.
With `Cc1cn2cc(NC(=O)c3cnc(N4CC5CN(C6CC6)CC5C4)cn3)cc(F)c2n1` (stereo not shown) [Example 174, 5-(5-cyclopropylhexahydropyrrolo[3,4-c]pyrrol-2(1H)-yl)-N-(8-fluoro-2-methylimidazo[1,2-a]pyridin-6-yl)pyrazine-2-carboxamide] the EC50 was 100 to 500 nM.
`Cc1cn2cc(NC(=O)c3cnc(N4CC[C@H](CNC5CC5)C4)cn3)cc(C)c2n1` [Example 264, (R)-5-(3-((cyclopropylamino)methyl)pyrrolidin-1-yl)-N-(2,8-dimethylimidazo[1,2-a]pyridin-6-yl)pyrazine-2-carboxamide] gave an EC50 of 100 to 500 nM.
Compound `CNC1CN(c2cnc(C(=O)Nc3cc(F)c4nc(C)cn4c3)cn2)CC1F` (stereo not shown) [Example 91] has an EC50 of 100 to 500 nM.
With `Cc1cn2cc(NC(=O)c3cnc(N4CCC(CNC5CC5)C4)cn3)cc(F)c2n1` (single isomer, unassigned) [Example 12, 5-(3-((cyclopropylamino)methyl)pyrrolidin-1-yl)-N-(8-fluoro-2-methylimidazo[1,2-a]pyridin-6-yl)pyrazine-2-carboxamide] the EC50 was less than 100 nM.
`Cc1nc2cc(F)c(NC(=O)c3cnc(N4CCC(NC5CC5)C4)cn3)cc2o1` (single isomer, unassigned) [Example 114, 5-[3-(cyclopropylamino)pyrrolidin-1-yl]-N-(5-fluoro-2-methyl-1,3-benzoxazol-6-yl)pyrazine-2-carboxamide] gave an EC50 of 500 to 1000 nM.
`Cc1cn2cc(NC(=O)c3cnc(N(C)C4CCNC5(CC5)C4)cn3)cc(F)c2n1` (single isomer, unassigned) [Example 318] was tested, and the EC50 was 100 to 500 nM.
`Cc1cn2cc(NC(=O)c3cnc(N4CCC(CNC(C)C)C4)cn3)nc(C)c2n1` (single isomer, unassigned) [Example 153] was tested, and the EC50 was 500 to 1000 nM.
`Cc1cn2cc(NC(=O)c3cnc(N4CCC(NC(C)C)C4)cn3)cc(F)c2n1` (stereo not shown) [Example 27] gave an EC50 of less than 100 nM.
